Test system: C1R-A24 cells
Assay: 51Cr release assay: peptide sensitization of C1R-A24 cells to lysis by anti LB33-E CTLs
Assay type: cell-based, human
Settings: 51Cr labeled C1R-A24 cells incubated 30 minutes with peptide, E/T ratio 10:1, chromium release after 4 hours
Description: The lysis assay employed was a chromium release assay following Herin et al., Int. J. Cancer 39:390-396 (1987), the disclosure of which is incorporated by reference. The assay, however, is described herein. The target melanoma cells were grown in vitro. Prior to labelling, these cells were incubated for 48 hours, in the presence of 50 U/ml of IFN-γ to increase the expression of HLA Class I molecules. The cells were then resuspended at 10^7 cells/ml in DMEM, supplemented with 10 mM HEPES and 30% FCS (i.e. fetal calf serum), and incubated for 45 minutes at 37° C. with 200 μCi/ml of Na(^51Cr)O4. Labelled cells were washed three times with DMEM, supplemented with 10 mM Hepes. These were then resuspended in DMEM supplemented with 10 mM Hepes and 10% FCS, after which 100 ul aliquots containing 10^3 cells, were distributed into 96 well microplates. PBL containing samples were added in 100 ul of the same medium, and assays were carried out in duplicate. Plates were centrifuged for 4 minutes at 100 g, and incubated for four hours at 37° C. in a 5.5% CO2 atmosphere.
Plates were centrifuged again, and 100 ul aliquots of supernatant were collected and counted. Percentage of ^51Cr release was calculated as follows: [formula]
where ER is observed, experimental ^51Cr release, SR is spontaneous release measured by incubating 10^3 labeled cells in 200 ul of medium alone, and MR is maximum release, obtained by adding 100 ul 0.3% Triton X-100® to target cells.
Four sequences in this region which (i) were 9 or 10 amino acids long, (ii) had Tyr or Phe at position 2, and (iii) had one of Phe, Leu, Ile, or Trp at C-terminus were possible. This is the motif for HLA-A24 binding described by Kubo, et al, J. Immunol 152:3913 (1994); Meier, et al, Immunogenetics 40:306-308 (1994). These were synthesized, and incubated with cells of MHC class I negative B-cell lympoblastoid line C1R, which had been transfected with the HLA-A24 cDNA clone described supra. One peptide:
Comparative experiments were carried out, wherein peptides containing one additional N- or C-terminal amino acid, and where the C-terminal Leu was deleted, were used. […] Peptides used extended SEQ ID NO:5 at the N-terminues with Ala (SEQ ID NO:6), and by deleting the C-terminal Leu (SEQ ID NO:7). […] In these experiments, ^51Cr labeled C1R-A24 cells were incubated for 30 minutes in the presence of indicated peptide concentrations CTLs were added at E/T ratios of 10:1, and chromium release was measured after 4 hours.

Substance | EC50 (read-out: half maximal effect in sensitizing transfected C1R-A24 cells to lysis by anti LB33-E CTLs) [nM] | sensitization of C1R-A24 cells to lysis, compared with SEQ ID NO:5
LYVDSLFFL [SEQ ID NO. 5, Leu Tyr Val Asp Ser Leu Phe Phe Leu] | 500 | –
SEQ ID NO:7: Peptide of SEQ ID NO:5 with the C-terminal Leu deleted (LYVDSLFF) | – | much less sensitive in sensitizing the cells
SEQ ID NO:6: Peptide that extends SEQ ID NO:5 at the N-terminus with Ala (ALYVDSLFFL) | – | sensitized the cells to lysis, although to a lesser degree than SEQ ID NO:5
SEQ ID NO:8: Peptide of SEQ ID NO:5 with Arg added to the C terminus (LYVDSLFFLR) | – | much less sensitive in sensitizing the cells

— patent US6339149B1, “Isolated nucleic acid molecules which encode tumor rejection antigens found in dage” (Ludwig Institute for Cancer Research, priority 1994, dated 2002)
